TGI and GI50 data for nine molecules are collected here from PubChem BioAssay (NCI).

SMILES strings stand for the structures. Several values for one entry are separate records, joined by “and”; a condition that tells them apart may be missing. Identical values can stand only once.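 1) Cells in 96-well plates. 2) Compound, 48 h, 5 concentrations. 3) Linear interpolation between surrounding doses. 4) Unreached endpoint = highest concentration. The concentration for 50% growth inhibition is given as GI50. Definition used: TGI = concentration required for complete inhibition of growth.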 Some results are limits rather than exact numbers.

Some test systems named below: EKVX NSCLC; HCC-2998 colon; HL-60(TB) leukemia; MDA-MB-435; OVCAR-3 ovarian; SF-295 CNS; SK-MEL-2 melanoma; SK-MEL-5 melanoma; SW-620 colon; UO-31 renal.
Common to all, as to assay: NCI anticancer screen, dose series, 48 h

With `Nc1nc(N)[n+]([O-])c(N)c1NCO`, the TGI with EKVX NSCLC, with HCC-2998 colon, with HL-60(TB) leukemia, with MDA-MB-435, in the assay on OVCAR-3 ovarian and in the assay with SF-295 CNS was more than 100 µM in each case. Moreover, the TGI in the assay with SK-MEL-2 melanoma, in the assay with SK-MEL-5 melanoma, with SW-620 colon and in the assay on UO-31 renal was more than 100 µM in each case.
In the case of `O=C1C2CC(Cl)C(SSC3CC4C(=O)N(SC(Cl)(Cl)C(Cl)Cl)C(=O)C4CC3Cl)CC2C(=O)N1SC(Cl)(Cl)C(Cl)Cl` (stereo not given), the TGI in the assay with EKVX NSCLC came out at 15.5 µM; in the assay on HCC-2998 colon, 16.4 µM; with HL-60(TB) leukemia, 1.83 µM; in the assay with MDA-MB-435, 6.23 µM; in the assay with OVCAR-3 ovarian, 5.07 µM; with SF-295 CNS, 17.1 µM. In addition, the TGI in the assay on SK-MEL-2 melanoma was found to be 3.65 µM; in the assay with SK-MEL-5 melanoma it was 4.55 µM; in the assay on SW-620 colon, 5.09 µM; in the assay on UO-31 renal, 4.82 µM.
On to `C[C@@H](c1ccc2nccn2c1)n1nnc2ncc(-c3cnn(C)c3)nc21`, for which the GI50 with EKVX NSCLC is more than 100 µM; in the assay with HCC-2998 colon, more than 100 µM; in the assay with HL-60(TB) leukemia, more than 100 µM; in the assay on MDA-MB-435 it was more than 100 µM; in the assay on OVCAR-3 ovarian, more than 100 µM; in the assay on SF-295 CNS, 0.83 µM. Also, the GI50 with SK-MEL-2 melanoma, in the assay with SK-MEL-5 melanoma, with SW-620 colon and with UO-31 renal was more than 100 µM throughout. In addition, the TGI in the assay with EKVX NSCLC, in the assay with HCC-2998 colon, in the assay on HL-60(TB) leukemia, with MDA-MB-435, with OVCAR-3 ovarian and in the assay on SF-295 CNS was more than 100 µM in each case. The TGI with SK-MEL-2 melanoma, with SK-MEL-5 melanoma, in the assay with SW-620 colon and with UO-31 renal was more than 100 µM throughout.
With `COc1cc(-c2cc(C(=O)N3CCN(C(=O)c4ccccc4NCc4ccco4)CC3)nc3cc(-c4ccccc4)nn23)cc(OC)c1OC`, the GI50 in the assay on EKVX NSCLC was 5.5 µM; in the assay with HCC-2998 colon, 7.56 µM; in the assay with HL-60(TB) leukemia, 3.7 µM; in the assay on MDA-MB-435 it was 0.309 µM; in the assay with OVCAR-3 ovarian, 1.47 µM; in the assay with SF-295 CNS, 1.59 µM. For the same molecule, the GI50 in the assay with SK-MEL-2 melanoma is 2.9 µM; in the assay with SK-MEL-5 melanoma it was 1.46 µM; with SW-620 colon, 2.62 µM; in the assay with UO-31 renal, 3.71 µM. The TGI was more than 100 µM with EKVX NSCLC; more than 100 µM in the assay with HCC-2998 colon; 30.6 µM in the assay on HL-60(TB) leukemia; 1.61 µM with MDA-MB-435; 6.27 µM with OVCAR-3 ovarian; more than 93.1 µM in the assay on SF-295 CNS. For the same molecule, the TGI was more than 79.4 µM with SK-MEL-2 melanoma, more than 100 µM in the assay with SK-MEL-5 melanoma, more than 100 µM in the assay with SW-620 colon and more than 100 µM in the assay on UO-31 renal.
Consider `Nc1cccc2c1C(=O)N(C1CCC(=O)NC1=O)C2=O` (stereo not given), for which the GI50 in the assay on EKVX NSCLC, in the assay on HCC-2998 colon, in the assay with HL-60(TB) leukemia, in the assay with MDA-MB-435, in the assay with OVCAR-3 ovarian and in the assay on SF-295 CNS was more than 100 µM throughout. Also, the GI50 in the assay on SK-MEL-2 melanoma, in the assay on SK-MEL-5 melanoma, in the assay on SW-620 colon and in the assay with UO-31 renal was more than 100 µM each time. Moreover, the TGI with EKVX NSCLC, with HCC-2998 colon, in the assay on HL-60(TB) leukemia, in the assay with MDA-MB-435, in the assay on OVCAR-3 ovarian and with SF-295 CNS was more than 100 µM throughout. The TGI in the assay with SK-MEL-2 melanoma, in the assay on SK-MEL-5 melanoma, in the assay on SW-620 colon and in the assay with UO-31 renal was more than 100 µM throughout.
Take `COc1cc(CCc2cc(NC(=O)c3ccc(N4C[C@@H](C)N[C@@H](C)C4)cc3)n[nH]2)cc(OC)c1`: the GI50 was more than 10 µM with EKVX NSCLC; > 10 µM and 6.77 µM in the assay on HCC-2998 colon; 2.47 µM and 4.15 µM with HL-60(TB) leukemia; 6.15 µM and 3.48 µM with MDA-MB-435; > 10 µM and 15.7 µM in the assay on OVCAR-3 ovarian; > 10 µM and 6.8 µM in the assay on SF-295 CNS. For the same molecule, the GI50 in the assay on SK-MEL-2 melanoma is 4.17 µM and 4.95 µM; with SK-MEL-5 melanoma it was 9.72 µM and 3.83 µM; in the assay on SW-620 colon it was 6.49 µM and 3.5 µM; with UO-31 renal it was 2.84 µM and 2.7 µM. In addition, the TGI in the assay on EKVX NSCLC was more than 10 µM; in the assay on HCC-2998 colon, > 10 µM and 19.5 µM; in the assay on HL-60(TB) leukemia it was > 10 µM and 14.9 µM; in the assay on MDA-MB-435 it was > 10 µM and 14.2 µM; in the assay with OVCAR-3 ovarian, > 10 µM and 30 µM; in the assay with SF-295 CNS it was > 10 µM and 21.3 µM. Further, the TGI was > 10 µM and 18.2 µM in the assay with SK-MEL-2 melanoma; > 10 µM and 12.7 µM in the assay with SK-MEL-5 melanoma; > 10 µM and 15.6 µM in the assay on SW-620 colon; > 10 µM and 13.9 µM with UO-31 renal.
As to `COc1cc(O)c(C(=O)/C=C/c2ccccc2)c(OC)c1`, the TGI in the assay on EKVX NSCLC came out at 22.4 µM; with HCC-2998 colon, 14.1 µM; in the assay with HL-60(TB) leukemia it was 5.17 µM; in the assay with MDA-MB-435, 25.5 µM; with OVCAR-3 ovarian, 44.7 µM; in the assay with SF-295 CNS, 26.9 µM. Further, the TGI in the assay on SK-MEL-2 melanoma was 21.1 µM; with SK-MEL-5 melanoma, 24.2 µM; with SW-620 colon it was 23.8 µM; with UO-31 renal, 17.6 µM.
For `O=[N+]([O-])c1ccc(Sc2ncccn2)c([N+](=O)[O-])c1`, the GI50 in the assay with EKVX NSCLC was 3.96 µM; in the assay with HCC-2998 colon it was 13 µM; in the assay with HL-60(TB) leukemia it was 2.37 µM; with MDA-MB-435, 3.16 µM; in the assay with OVCAR-3 ovarian, 3.38 µM; in the assay with SF-295 CNS, 5.93 µM. Further, the GI50 with SK-MEL-2 melanoma was 7.15 µM; with SK-MEL-5 melanoma, 10.4 µM; in the assay with SW-620 colon it was 2.9 µM; with UO-31 renal it was 1.93 µM. In addition, the TGI was determined as 18.7 µM with EKVX NSCLC; 26.5 µM in the assay with HCC-2998 colon; 15.8 µM with HL-60(TB) leukemia; 13.3 µM in the assay with MDA-MB-435; 10.3 µM with OVCAR-3 ovarian; 20 µM in the assay with SF-295 CNS. Besides, the TGI in the assay with SK-MEL-2 melanoma worked out at 21.5 µM; in the assay with SK-MEL-5 melanoma, 22.4 µM; with SW-620 colon, 8.05 µM; in the assay on UO-31 renal it was 7.36 µM.
On to `O=C(Nc1ccncc1)C(=O)c1cn(S(=O)(=O)c2ccc(Br)cc2)c2ccccc12`, for which the GI50 with EKVX NSCLC is 3.81 µM; in the assay on HCC-2998 colon it was 23.6 µM; with HL-60(TB) leukemia, 2.41 µM; in the assay with MDA-MB-435 it was 0.459 µM; in the assay on OVCAR-3 ovarian, 4.54 µM; in the assay on SF-295 CNS, 2.26 µM. Moreover, the GI50 in the assay with SK-MEL-2 melanoma was 32 µM; in the assay with SK-MEL-5 melanoma, 3.5 µM; in the assay on SW-620 colon, 4.18 µM; with UO-31 renal it was more than 100 µM. The TGI was more than 100 µM in the assay with EKVX NSCLC; more than 100 µM with HCC-2998 colon; more than 100 µM in the assay with HL-60(TB) leukemia; 3.49 µM with MDA-MB-435; more than 100 µM in the assay with OVCAR-3 ovarian; more than 100 µM in the assay on SF-295 CNS. Further, the TGI is more than 100 µM with SK-MEL-2 melanoma, 37.5 µM with SK-MEL-5 melanoma, more than 100 µM in the assay on SW-620 colon and more than 100 µM with UO-31 renal.
